Measured values taken from patent US8883862B2, “Method for controlled release of parathyroid hormone from cross-linked hyaluronic acid hydrogel” (Kaohsiung Medical University, priority 2012, dated 2014).
Like-named read-outs stand apart in the source and are kept apart here.

How the values were obtained:
[1] = Stability of PTH(1-34) under UV exposure (ELISA); format: physicochemical; details: 10 minutes of UV exposure
Method: The hydrogel was fabricated by the photo-cross linking method. Briefly, 20 mg of methacrylated-hyaluronic acid (MeHA) was dissolved in 650 μL of stock solution (0.9% NaCl/4 mM HCl/0.1% BSA solution) and 100 μL of 0.07% (w/v) 12959 (Ciba specialty chemicals, Taiwan) was added to the solution. After complete dissolution, 250 μL of PTH(1-34) stock solution (10^−5 M) was added to the polymer solution and mixed completely. The mixture was transferred into glass syringe and exposed under UV light for 10 minutes. The resulting PTH/CLMH gel was washed with distilled water and then lyophilized. The morphology of the gel was examined using scanning electron microscopy (SEM) after gold coating of the samples on a stub.
The encapsulation and release kinetics are as follows: 200 μL of PTH(1-34)-loaded CLMH hydrogel (PTH/CLMH gel) suspended in 1 mL of 0.9% NaCl was crushed completely and collected the supernatant. Concentration of PTH(1-34) on the supernatant was measured using a commercially available PTH(1-34) ELISA kit following the manufacturer's instructions.

[2] = pulmonary route, cited from earlier work
[3] = tested on: MC3T3-E1 (osteoblastic cells); assay: Bioactivity of released PTH(1-34): cAMP contents in cells; format: cell-based; details: PTH(1-34) released from PTH/CLMH hydrogel at 2, 3, 4, 9, 10 and 11 days; 20 mins incubation
Method: The activity of controlled released PTH(1-34) was determined by measuring cAMP contents in cells treated with released PTH(1-34). For these examples, the MC3T3-E1 (osteoblastic cells) was cultured in phenol red-free α-MEM supplemented with 10% fetal bovine serum and […] ascorbic acid. The Cells were seeded into 24-well plates at a density of 50,000 cells/well. 0.25 mM isobutylmethylxanthine was used to inhibit cAMP degradation and incubated with released PTH(1-34) for 20 mins. The cells were lysed directly in the medium by adding 0.1N HCl. Intracellular cAMP was measured using a commercially available immunoassay kit (cayman) following the manufacturer's instructions.
Statistical analysis: Three independent cultures for biochemical analysis were tested. Each example was repeated at least three times, and data (expressed as mean±SEM) from a representative example are shown. Statistical significance was evaluated by one-way analysis of variance (ANOVA), and multiple comparisons were performed by Student's t-test. A p<0.05 was considered significant.

[4] = tested on: papain-induced OA; assay: Papain-induced OA in rat knees, histology of articular cartilage (GAG, type II collagen); format: in vivo, Rats; details: OA group; intra-articular; PTH(1-34) 10 nM every 3 days, hydrogels every 10 days
Method: Rats were divided into the following 2 groups: OA group (OA induction with or without PTH(1-34) treatment) (n=5), non-OA group (n=5) injected with vehicle without PTH(1-34) treatment and OA induction. The right knees were the study joints. OA was induced in the right knees of rats in the OA groups with intra-articular injections of 20 ul of 4% papain solution and 20 ul of 0.03M cysteine. The injections were given with a 23-gauge needle via the patellar tendon on days 1, 4, and 7 of the example. In the OA group, after OA induction, the right knees were injected intra-articularly with 40 ul of 10 nM PTH(1-34) every 3 days or PTH/CLMH or CLMH every 10 days until rats were sacrificed. In the non-OA group, the same treatments were performed but without OA induction. Rats from each group were sacrificed by CO2 inhalation. Histologic analysis: After rats were sacrificed, the knees were harvested, and the tibia plateaus with articular cartilage were collected and fixed with 10% neutral buffered formalin prior to histologic preparation. The samples were then decalcified in 0.05M EDTA. The decalcified tibia articular samples were paraffin embedded, and […] microsections in the coronary plane were prepared. GAG was stained with Safranin O-fast green (1% Safranin 0 counterstained with 0.75% hematoxylin and then 1% fast green; Sigma) (dark color). […]

CC[C@H](C)[C@H](NC(=O)[C@H](CCC(=O)O)NC(=O)[C@H](CO)NC(=O)[C@@H](NC(=O)[C@@H](N)CO)C(C)C)C(=O)N[C@@H](CCC(N)=O)C(=O)N[C@@H](CC(C)C)C(=O)N[C@@H](CCSC)C(=O)N[C@@H](Cc1cnc[nH]1)C(=O)N[C@@H](CC(N)=O)C(=O)N[C@@H](CC(C)C)C(=O)NCC(=O)N[C@@H](CCCCN)C(=O)N[C@@H](Cc1cnc[nH]1)C(=O)N[C@@H](CC(C)C)C(=O)N[C@@H](CC(N)=O)C(=O)N[C@@H](CO)C(=O)N[C@@H](CCSC)C(=O)N[C@@H](CCC(=O)O)C(=O)N[C@@H](CCCN=C(N)N)C(=O)N[C@H](C(=O)N[C@@H](CCC(=O)O)C(=O)N[C@@H](Cc1c[nH]c2ccccc12)C(=O)N[C@@H](CC(C)C)C(=O)N[C@@H](CCCN=C(N)N)C(=O)N[C@@H](CCCCN)C(=O)N[C@@H](CCCCN)C(=O)N[C@@H](CC(C)C)C(=O)N[C@@H](CCC(N)=O)C(=O)N[C@@H](CC(=O)O)C(=O)N[C@H](C(=O)N[C@@H](Cc1cnc[nH]1)C(=O)N[C@@H](CC(N)=O)C(=O)N[C@@H](Cc1ccccc1)C(=O)O)C(C)C)C(C)C [PTH(1-34), teriparatide]
stability of PTH(1-34) under UV exposure [1]: no significant adverse effect
bioavailability ([2]; inhalation of dry powders): 34%
bioavailability ([2]; intratracheal instillation): 40%
expression of cAMP [3]: increased expression of cAMP
level of GAG in OA articular cartilage [4]: could reverse papain-induced OA changes by increasing GAG level
